Target: T1, Dd2‐PfATP4^G358S (Plasmodium falciparum, UniProt A0A143ZZK9, G1128R/G358S)
T1 construct: We prepared membranes from Dd2‐Polδ‐PfATP4^G358S parasites (generated previously[22]); endogenous in cells; host or cells: P. falciparum Dd2-Polδ-PfATP4^G358S trophozoites (membrane preparation)
T1 sequence (A0A143ZZK9 1-1264 G358S/G1128R): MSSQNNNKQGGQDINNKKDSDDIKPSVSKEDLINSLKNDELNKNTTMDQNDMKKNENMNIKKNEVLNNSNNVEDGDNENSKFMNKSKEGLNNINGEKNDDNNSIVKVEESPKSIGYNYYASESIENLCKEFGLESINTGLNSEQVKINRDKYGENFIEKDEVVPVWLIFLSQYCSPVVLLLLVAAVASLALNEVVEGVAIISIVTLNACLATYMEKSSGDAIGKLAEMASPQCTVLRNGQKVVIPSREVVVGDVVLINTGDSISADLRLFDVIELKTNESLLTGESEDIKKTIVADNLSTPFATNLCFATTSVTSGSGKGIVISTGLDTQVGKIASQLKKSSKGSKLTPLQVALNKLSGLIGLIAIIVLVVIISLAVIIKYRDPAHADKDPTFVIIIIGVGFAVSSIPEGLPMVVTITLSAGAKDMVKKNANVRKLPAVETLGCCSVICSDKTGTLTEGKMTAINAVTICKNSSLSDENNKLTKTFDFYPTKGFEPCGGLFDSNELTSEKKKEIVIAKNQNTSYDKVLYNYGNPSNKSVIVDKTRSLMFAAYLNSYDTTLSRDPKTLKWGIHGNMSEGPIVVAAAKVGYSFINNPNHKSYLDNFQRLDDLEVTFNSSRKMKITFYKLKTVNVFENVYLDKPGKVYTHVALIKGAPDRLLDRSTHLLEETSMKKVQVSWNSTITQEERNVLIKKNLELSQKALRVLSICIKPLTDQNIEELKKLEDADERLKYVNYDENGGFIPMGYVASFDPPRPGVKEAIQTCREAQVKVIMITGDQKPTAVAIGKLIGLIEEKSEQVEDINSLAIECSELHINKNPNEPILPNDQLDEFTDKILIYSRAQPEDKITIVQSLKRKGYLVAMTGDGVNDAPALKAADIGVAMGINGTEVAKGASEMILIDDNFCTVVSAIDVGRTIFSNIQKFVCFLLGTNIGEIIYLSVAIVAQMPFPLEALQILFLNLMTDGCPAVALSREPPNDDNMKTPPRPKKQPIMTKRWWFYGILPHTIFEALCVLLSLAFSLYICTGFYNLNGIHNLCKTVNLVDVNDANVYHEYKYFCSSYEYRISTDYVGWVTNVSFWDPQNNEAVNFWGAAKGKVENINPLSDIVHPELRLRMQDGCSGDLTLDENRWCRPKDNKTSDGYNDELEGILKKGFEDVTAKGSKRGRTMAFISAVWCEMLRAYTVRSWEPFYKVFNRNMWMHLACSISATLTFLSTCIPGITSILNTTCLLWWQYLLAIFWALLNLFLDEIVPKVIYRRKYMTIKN
Test: PfATP4 Na+ assay (membrane ATPase), Dd2-Polδ-PfATP4^G358S membranes
Format: biochemical, P. falciparum
Conditions: membranes from Dd2-Polδ-PfATP4^G358S parasites
Experimental: Figure 4 Dihydroquinazolinone analogs 14 and 36 (WJM062) inhibit Na^+‐ATPase activity in membranes prepared from isolated P. falciparum parasites, consistent with them being PfATP4 inhibitors. (A) The effects of dihydroquinazolinone compounds (2 μM), dihydroartemisinin (DHA; 50 nM; negative control) and 0.2 % v/v DMSO (solvent‐only control) on membrane ATPase activity under high‐[Na^+] conditions (152 mM Na^+) and low‐[Na^+] conditions (2 mM Na^+; stemming from the addition of 1 mM Na2ATP) in the presence and absence of the PfATP4 inhibitor cipargamin (50 nM). The membranes were prepared from isolated trophozoite‐stage 3D7 parasites. The Pi produced is expressed as a percentage of that measured in the 152 mM Na^+ Control. The data are from four independent experiments performed with different membrane preparations; the symbols show the data from individual experiments and the bars show the mean (+SEM). In individual experiments, the Pi produced in the 152 mM Na^+ Control varied from 66 to 96 nmol per mg (total) protein per min. A repeated measures ANOVA with a post hoc Tukey test was used to compare the (pre‐normalised) data for different compounds and conditions. […] In B−D, the Pi production measured in the low‐[Na^+] (2 mM) condition was subtracted from that measured in high‐[Na^+] […] The PfATP4‐associated ATPase activity is expressed as a percentage of that obtained for the high‐[Na^+] […]

Row | Compound | EC50
1 | COc1cc(F)c2c(c1)NC(C)(C(=O)Nc1cncc(Cl)c1)N(C)C2=O (centres unmarked) [Compound 36, N‐(5‐Chloropyridin‐3‐yl)‐5‐fluoro‐7‐methoxy‐2,3‐dimethyl‐4‐oxo‐1,2,3,4‐tetrahydroquinazoline‐2‐carboxamide] | 0.0116 µM
2 | CN1C(=O)c2ccc(Cl)cc2NC1(C)C(=O)Nc1cncc(Cl)c1 (centres unmarked) [Compound 14, 7‐Chloro‐N‐(5‐chloro‐3‐pyridyl)‐2,3‐dimethyl‐4‐oxo‐1H‐quinazoline‐2‐carboxamide] | 0.0121 µM

From paper PMC11648822, “Lactam Truncation Yields a Dihydroquinazolinone Scaffold with Potent Antimalarial Activity that Targets PfATP4” (Chemmedchem, 2024)
